The values that follow come from US7901713B2, “Inhibition of COX-2 and/or 5-LOX activity by fractions isolated or derived from hops” (Metaproteomics, LLC, priority 2001, dated 2011).

One assay relates to Jurkat cells. The experiment in a line: Antioxidant activity, DCFH-DA oxidative stress model (H2O2 + LPS) in Jurkat cells. Format: cell-based. Particulars: Homo sapiens, 1000 μM H2O2 + 1 μg/mL LPS, highest concentration tested 50 μg/mL, parenthetic 95% confidence limits. On the procedure:
Chemicals and reagents—Bacterial lipopolysaccharide (LPS; B E. coli 055:B5) was from Sigma (St. […] (Eugene, Oreg.); DCFH-DA was dissolved in dimethyl sulfoxide (DMSO) as a stock solution and kept frozen at −20° C. […] Positive control compounds included caffeic acid and Trolox obtained from Sigma (St. Louis, Mo.) and were of the highest purity commercially available. […] Unless otherwise noted, all standard reagents were obtained from Sigma and were the purest commercially available. […] Excess DCFH-DA was removed by centrifuging the cells for 10 minutes and resuspending them in the original growth medium. Cells were plated in microtiter wells at a concentration of approximately 10^6 cells per well. […] Fluorescence for each well was captured, digitized and stored on a computer using Cytofluor (Version 4.0). Measurements of fluorescence were made every ten minutes for 60 minutes. The change in DCF fluorescence is presented relative to the LPS-stimulated Jurkat cells alone; […] […] Antioxidant activity of the test materials—Oxidative stress was measured in cells using DCFH-DA in a microtiter plate assay as previously described [Wang, H. and Joseph, J. A. (1999) Quantifying cellular oxidative stress by dichlorofluorescein assay using microplate reader. […] Thus, the assay can be used to quantify overall oxidative stress in cells. […] Cm is determined from the x-intercept of the median-effect plot. […]

The test system of a further assay is RAW 264.7 cells. As to the kind of experiment: Antioxidant activity, DCFH-DA oxidative stress model (H2O2 + LPS) in RAW 264.7 cells. The class given is cell-based, murine. Conditions: Mus musculus, RAW264.7; 1000 μM H2O2 + 1 μg/mL LPS; highest concentration tested 50 μg/mL; parenthetic 95% confidence limits.
For assay [1] the following is noted: clinical trials; cited from earlier work.

The IC50 is the concentration that inhibits the measured activity by half. Turning to `Cc1c(C)c2c(c(C)c1O)CCC(C)(C(=O)O)O2` (stereo not shown) [Trolox], the IC50 in the assay on Jurkat cells was 5.4 µg/mL.

For `O=C(O)/C=C/c1ccc(O)c(O)c1` [Caffeic acid, caffeic acid], the half-maximal inhibitory concentration (IC50) with Jurkat cells was determined as 3.2 µg/mL; in the assay with RAW 264.7 cells it was 3.3 µg/mL.

For `CC(=O)Oc1ccccc1C(=O)O` [Aspirin, acetylsalicylic acid], in assay [1], the “reduction of primary and secondary incidence of myocardial infarction and other CVDs” value was “approximately 25%”.
